Measured values taken from US12060349B2, “Glucosylceramide synthase inhibitors” (Genzyme Corporation, priority 2012, dated 2024).
Like-named read-outs stand apart in the source and are kept apart here.

Key:
jck mice = test: glucosylceramide synthase inhibition in a model of polycystic kidney disease (jck mice); assay type: in vivo, mouse; conditions: FIG. 3
From the text: Mice homozygous for the Nek8jck mutation develop polycystic kidney disease (“jck mice”). […] Disease is progressive but not evident by kidney palpation until at least 4 to 5 weeks of age. Homozygotes generally remain active until shortly before death and usually die between 20 and 25 weeks of age. […] No histologic abnormalities are found in the liver, spleen, or pancreas. (Atala et al., 1993).
To evaluate the effects of a GCS inhibitor on polycystic kidney disease, Compound 156, (S)-quinuclidin-3-yl (2-(4′-(2-methoxyethoxy)-[1,1′-biphenyl]-4-yl)propan-2-yl)carbamate was administered in the feed of jck mice at doses of 15, 30 and 50 mg/kg. A second compound, quinuclidin-3-yl (2-(4′-fluoro-[1,1′-biphenyl]-3-yl)propan-2-yl)carbamate (hereinafter “GZ 161”) was administered in the feed of jck mice at a dose of 60 mg/kg.
Administration of the compound was started between 3 and 4 weeks of age, and continued until the mice were sacrificed at 9 weeks of age. The effect of the compounds on the disease phenotype was evaluated by measurement of body weight, blood urea nitrogen (“BUN”), and serum GL1. Additional effects on kidney/body weight (K/BW), cyst volume, BUN, kidney GL1, and serum GL1 were also measured at the end of life time point of the study.

[1] = target: T1, glucosylceramide synthase (Homo sapiens, UniProt Q16739); test: microsomal assay measuring conversion of ceramide to glucosylceramide by HPLC (GCS IC50); assay type: biochemical; conditions: concentration causing 50% inhibition of glucosylceramide synthase activity
T1 construct: Microsomes were isolated from A375 human melanoma cells; endogenous in cells; host or cells: A375 human melanoma cells (microsomal fraction, 100,000 g pellet)
T1 sequence (Q16739 1-394): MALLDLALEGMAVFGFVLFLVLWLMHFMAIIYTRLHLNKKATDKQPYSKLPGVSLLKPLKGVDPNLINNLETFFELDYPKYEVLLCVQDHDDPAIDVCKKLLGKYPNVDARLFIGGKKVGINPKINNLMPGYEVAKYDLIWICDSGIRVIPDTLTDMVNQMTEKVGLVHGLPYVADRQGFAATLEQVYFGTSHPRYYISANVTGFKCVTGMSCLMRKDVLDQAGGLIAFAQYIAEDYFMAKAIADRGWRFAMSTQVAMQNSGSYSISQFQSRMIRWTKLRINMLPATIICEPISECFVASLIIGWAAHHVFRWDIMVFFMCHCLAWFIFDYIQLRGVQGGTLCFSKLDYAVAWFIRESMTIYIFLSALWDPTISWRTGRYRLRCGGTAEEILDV
How it was run: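 Microsomal preparation assayed for glucosylceramide synthase by direct HPLC measurement of ceramide conversion to glucosylceramide. GCS IC50 is the compound concentration giving 50% inhibition of enzyme activity.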

[2] = test system: GM3 expression on the cell surface, B16 mouse melanoma cells; test: cell based phenotypic assay, cell surface GM3 by antibody mediated immunofluorescence, B16 (GM3 B16 IC50); conditions: 50% inhibition of GM3 expression on the cell surface
How it was run: (§1)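 Two melanoma lines, mouse B16 and human C32, were treated and surface GM3 quantified by antibody immunofluorescence for IC50. A parallel viability readout gives the concentration killing 50% of cells, with values over 10 indicating no cell death.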

[3] = test system: GM3 expression on the cell surface, C32 human melanoma cells; test: cell based phenotypic assay, cell surface GM3 by antibody mediated immunofluorescence, C32 (GM3 C32 IC50); conditions: 50% inhibition of GM3 expression on the cell surface
How it was run: as §1

B16 mouse melanoma cells = test: cell viability in the B16 cell-based assay (Viability, B16 IC50)
How it was run: (§2)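 Both lines undergo the phenotypic GM3 assay, and viability is recorded from that same cell-based run.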

C32 human melanoma cells = test: cell viability in the C32 cell-based assay (Viability, C32 IC50); conditions: concentration causing 50% cell death, values greater than 10 represent a lack of cell death
How it was run: as §2

[4] = Mus musculus, read-out: GM3 B16 IC50, B16 mouse melanoma cells
[5] = Homo sapiens, read-out: GM3 C32 IC50, C32 human melanoma cells
[6] = Mus musculus, B16, read-out: Viability, B16 IC50
[7] = Homo sapiens, C32, read-out: Viability, C32 IC50, C32 cells
[8] = all three dose groups (15, 30 and 50 mg/kg in feed), vs vehicle control group
[9] = in feed at 15, 30 and 50 mg/kg, associated with GL1 inhibition
[10] = Mus musculus, B16 mouse melanoma cells, read-out: GM3 B16 IC50
[11] = Homo sapiens, C32 human melanoma cells, read-out: GM3 C32 IC50
[12] = Mus musculus, B16, B16 cells, concentration causing 50% cell death, values greater than 10 represent a lack of cell death, read-out: Viability, B16 IC50
[13] = Homo sapiens, C32, C32 cells, read-out: Viability, C32 IC50
[14] = B16 mouse melanoma cells, read-out: GM3 B16 IC50
[15] = C32 human melanoma cells, read-out: GM3 C32 IC50
[16] = B16 cells, concentration causing 50% cell death, values greater than 10 represent a lack of cell death, read-out: Viability, B16 IC50
[17] = C32 cells, read-out: Viability, C32 IC50

Compound | IC50 [1] [nM] | IC50 [2, 10] [nM] | IC50 [3, 11] [nM] | IC50 (B16 mouse melanoma cells; [12]) [nM] | IC50 (C32 human melanoma cells; [13]) [nM] | also measured
CC(C)(NC(=O)OC1CN2CCC1CC2)c1cccc(-c2ccc(F)cc2)c1 (stereo not drawn) [GZ 161, quinuclidin-3-yl (2-(4′-fluoro-[1,1′-biphenyl]-3-yl)propan-2-yl)carbamate] | – | – | – | – | – | kidney to body weight (K/BW) (jck mice; 60 mg/kg in feed, vs vehicle control group): statistically different
COCCOc1ccc(-c2ccc(C(C)(C)NC(=O)O[C@@H]3CN4CCC3CC4)cc2)cc1 [Example 156, (S)-Quinuclidin-3-yl (2-(4′-(2-methoxyethoxy)-[1,1′-biphenyl]-4-yl)propan-2-yl)carbamate] | 4.14 | – | – | – | – | IC50 [2, 4]: 43.7 nM; IC50 [3, 5]: 1.31 nM; IC50 (B16 mouse melanoma cells; [6]): 4740 nM; IC50 (C32 human melanoma cells; [7]): 763 nM; body weight (jck mice; 30 mg/kg in feed, vs vehicle control group): statistically different; body weight (jck mice; 50 mg/kg in feed, vs vehicle control group): statistically different; BUN (blood urea nitrogen) (jck mice; [8]): statistically different; cyst volume (jck mice; [8]): statistically different; kidney to body weight (K/BW) (jck mice; [8]): statistically different; cyst growth (jck mice; [9]): reduced; kidney function (jck mice; [9]): preservation; GL1 levels (jck mice; in feed at 15, 30 and 50 mg/kg, from 3-4 weeks to 9 weeks of age, vs vehicle control): dose-dependent inhibition
CCC1(NC(=O)NC2(c3ccc(-c4ccc(COCc5cncnc5)cc4)cc3)CC2)CN2CCC1CC2 (stereo not drawn) [Example 220, 1-(3-Ethylquinuclidin-3-yl)-3-(1-(4′-((pyrimidin-5-ylmethoxy)methyl)-[1,1′-biphenyl]-4-yl)cyclopropyl)urea] | 51.6 | 114 | 6.06 | ≥ 10000 | 3160 | –
COCc1ccc(-c2nc(N3CCN(C(=O)NC4(C)CCN5CCC4CC5)CC3C(C)C)ncc2F)cc1 (stereo not drawn) [Example 148, 4-(5-Fluoro-4-(4-(methoxymethyl)phenyl)pyrimidin-2-yl)-3-isopropyl-N-(4-methyl-1-azabicyclo[3.2.2]nonan-4-yl)piperazine-1-carboxamide] | 17.4 | 390 | 8.59 | 3460 | 1000 | –
COCCOc1cnc(N2CCC(C(=O)NC3(C)CCN4CCC3CC4)CC2)nc1-c1ccc(F)cc1 (stereo not drawn) [Example 104, 1-(4-(4-Fluorophenyl)-5-(2-methoxyethoxy)pyrimidin-2-yl)-N-(4-methyl-1-azabicyclo[3.2.2]nonan-4-yl)piperidine-4-carboxamide] | 25.1 | 51.3 | 3 | ≥ 10000 | 1000 | –
COC1(C(=O)NC2(C)CCN3CCC2CC3)CCN(c2nccc(-c3ccc(OCCF)cc3)n2)CC1 (stereo not drawn) [Example 103, 1-(4-(4-(2-Fluoroethoxy)phenyl)pyrimidin-2-yl)-4-methoxy-N-(4-methyl-1-azabicyclo[3.2.2]nonan-4-yl)piperidine-4-carboxamide] | 3.65 | 73.8 | 0.29 | 3110 | 316 | –
CCC1(NC(=O)NC(C)(C)c2ccc(C(=O)N3CCN(c4ccccc4)CC3)cc2)CN2CCC1CC2 (stereo not drawn) [Example 306, 1-(3-Ethylquinuclidin-3-yl)-3-(2-(4-(4-phenylpiperazine-1-carbonyl)phenyl)propan-2-yl)urea] | 95.1 | 257 | 32 | ≥ 10000 | 3160 | –
3-Ethyl-N-(4-methyl-1-azabicyclo[3.2.2]nonan-4-yl)-4-(4-phenylpyrimidin-2-yl)piperazine-1-carboxamide [Example 143] | 1.79 | – | – | – | – | IC50 [2, 14]: 52.3 nM; IC50 [3, 15]: 0.304 nM; IC50 (B16 mouse melanoma cells; [16]): 3110 nM; IC50 (C32 human melanoma cells; [17]): 3160 nM
CN(C)C(=O)c1ccc(Oc2ccc(C(C)(C)NC(=O)NC3(C)CCN4CCC3CC4)cc2)cc1 (stereo not drawn) [Example 290, N,N-Dimethyl-4-(4-(2-(3-(4-methyl-1-aza-bicyclo[3.2.2]nonan-4-yl)ureido)propan-2-yl)phenoxy)benzamide] | 19.1 | – | – | – | – | IC50 [2, 14]: 2580 nM; IC50 [3, 15]: 26.8 nM; IC50 (B16 mouse melanoma cells; [16]): ≥ 10000 nM; IC50 (C32 human melanoma cells; [17]): 3160 nM
COCCCOc1cnc(-c2ccc(C(C)(C)NC(=O)OC3CN4CCC3CC4)cc2)cn1 (stereo not drawn) [Example 320, Quinuclidin-3-yl (2-(4-(5-(3-methoxypropoxy)pyrazin-2-yl)phenyl)propan-2-yl)carbamate] | 131 | – | – | – | – | IC50 [2, 4]: 201 nM; IC50 [3, 5]: 11.2 nM; IC50 (B16 mouse melanoma cells; [6]): ≥ 10000 nM; IC50 (C32 human melanoma cells; [7]): 1000 nM
CC(C)(NC(=O)NC1(C)CN2CCC1CC2)c1ccc(-c2ccc(OCCn3ccnn3)cc2)cc1 (stereo not drawn) [Example 183, 1-(2-(4′-(2-(1H-1,2,3-Triazol-1-yl)ethoxy)-[1,1′-biphenyl]-4-yl)propan-2-yl)-3-(3-methylquinuclidin-3-yl)urea] | 31.6 | 969 | 10.2 | 5620 | 2510 | –
CC(C)(NC(=O)OC1CCN2CCC1CC2)c1ccc(-c2ccc(C(=O)N3CCCCC3)cc2)cc1 (stereo not drawn) [Example 263, 1-Azabicyclo[3.2.2]nonan-4-yl 2-(4′-(piperidine-1-carbonyl)biphenyl-4-yl)propan-2-ylcarbamate] | 14.5 | 75 | 3.01 | ≥ 10000 | 1000 | –
COCCOCc1ccc(-c2ccc(C(C)(C)NC(=O)N3CCN4CCC3CC4)cc2)cc1 [Example 202, N-(2-(4′-((2-Methoxyethoxy)methyl)-[1,1′-biphenyl]-4-yl)propan-2-yl)-1,4-diazabicyclo[3.2.2]nonane-4-carboxamide] | 2350 | 933 | 154 | ≥ 10000 | ≥ 10000 | –
